Assay results from ChEMBL document CHEMBL5678818, “Discovery of potent SOS1 inhibitors that block RAS activation via disruption of the RAS-SOS1 interaction” (Proc Natl Acad Sci U S A, 2019).

Assays:
[1] = target: T1, Serine/threonine-protein kinase DCLK1 (Homo sapiens) (UniProt O15075); assay: Inhibition of DCAMKL1 (unknown origin) assessed as residual activity at 1000 nM by KINOMEscan analysis relative to control
T1 sequence (whole entry): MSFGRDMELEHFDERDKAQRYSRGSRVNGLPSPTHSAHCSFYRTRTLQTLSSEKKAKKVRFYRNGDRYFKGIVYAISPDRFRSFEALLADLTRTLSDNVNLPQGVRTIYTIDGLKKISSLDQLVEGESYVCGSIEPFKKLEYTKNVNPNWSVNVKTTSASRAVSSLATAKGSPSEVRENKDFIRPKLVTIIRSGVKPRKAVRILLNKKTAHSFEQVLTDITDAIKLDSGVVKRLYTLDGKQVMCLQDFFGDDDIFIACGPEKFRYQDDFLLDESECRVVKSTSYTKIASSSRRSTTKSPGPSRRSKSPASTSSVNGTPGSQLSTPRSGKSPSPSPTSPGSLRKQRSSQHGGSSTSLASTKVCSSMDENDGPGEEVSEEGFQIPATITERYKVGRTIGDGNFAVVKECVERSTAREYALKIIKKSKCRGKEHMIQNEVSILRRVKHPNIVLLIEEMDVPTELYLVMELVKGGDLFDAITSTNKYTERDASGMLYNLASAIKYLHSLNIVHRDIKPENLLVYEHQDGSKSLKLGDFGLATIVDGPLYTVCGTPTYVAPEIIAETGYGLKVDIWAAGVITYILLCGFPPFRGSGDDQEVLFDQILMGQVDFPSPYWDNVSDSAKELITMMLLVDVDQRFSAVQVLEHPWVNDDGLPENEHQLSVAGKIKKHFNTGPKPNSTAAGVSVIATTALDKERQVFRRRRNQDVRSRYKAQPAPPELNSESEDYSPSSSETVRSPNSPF

[2] = target: Tyrosine-protein kinase Fes/Fps (Homo sapiens) (UniProt P07332); assay: Inhibition of FES (unknown origin) assessed as residual activity at 1000 nM by KINOMEscan analysis relative to control
[3] = tested on: Receptor-type tyrosine-protein kinase FLT3 (Homo sapiens), P36888 [D835H]; assay: Inhibition of FLT3 D835H mutant (unknown origin) assessed as residual activity at 1000 nM by KINOMEscan analysis relative to control
[4] = target: Serine/threonine-protein kinase PLK3 (Homo sapiens) (UniProt Q9H4B4); assay: Inhibition of PLK3 (unknown origin) assessed as residual activity at 1000 nM by KINOMEscan analysis relative to control
[5] = target: T2, Serine/threonine-protein kinase TAO3 (Homo sapiens) (UniProt Q9H2K8); assay: Inhibition of TAOK3 (unknown origin) assessed as residual activity at 1000 nM by KINOMEscan analysis relative to control
T2 sequence (whole entry): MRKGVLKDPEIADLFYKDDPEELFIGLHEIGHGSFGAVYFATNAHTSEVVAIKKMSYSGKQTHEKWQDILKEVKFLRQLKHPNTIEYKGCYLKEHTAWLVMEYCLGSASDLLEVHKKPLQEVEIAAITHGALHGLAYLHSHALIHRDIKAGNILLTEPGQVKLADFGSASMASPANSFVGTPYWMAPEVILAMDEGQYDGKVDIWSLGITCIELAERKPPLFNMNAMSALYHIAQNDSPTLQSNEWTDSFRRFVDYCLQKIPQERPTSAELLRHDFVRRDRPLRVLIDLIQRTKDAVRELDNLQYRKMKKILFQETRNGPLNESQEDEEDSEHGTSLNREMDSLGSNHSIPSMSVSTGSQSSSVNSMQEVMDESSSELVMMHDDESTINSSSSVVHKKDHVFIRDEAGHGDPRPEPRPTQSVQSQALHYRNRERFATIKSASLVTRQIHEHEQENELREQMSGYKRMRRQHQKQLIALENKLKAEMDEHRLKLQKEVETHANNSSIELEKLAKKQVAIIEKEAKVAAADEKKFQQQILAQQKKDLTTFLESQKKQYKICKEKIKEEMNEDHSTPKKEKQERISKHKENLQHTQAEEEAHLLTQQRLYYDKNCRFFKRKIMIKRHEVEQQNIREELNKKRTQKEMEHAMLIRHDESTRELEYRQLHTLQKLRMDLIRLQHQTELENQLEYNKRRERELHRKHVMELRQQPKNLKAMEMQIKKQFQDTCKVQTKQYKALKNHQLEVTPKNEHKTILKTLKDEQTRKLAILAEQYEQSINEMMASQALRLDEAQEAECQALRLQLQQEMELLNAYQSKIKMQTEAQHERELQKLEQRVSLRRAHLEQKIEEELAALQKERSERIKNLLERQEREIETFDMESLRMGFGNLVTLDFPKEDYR

[6] = target: T3, Tyrosine-protein kinase ZAP-70 (Homo sapiens) (UniProt P43403); assay: Inhibition of ZAP70 (unknown origin) assessed as residual activity at 1000 nM by KINOMEscan analysis relative to control
T3 sequence (whole entry): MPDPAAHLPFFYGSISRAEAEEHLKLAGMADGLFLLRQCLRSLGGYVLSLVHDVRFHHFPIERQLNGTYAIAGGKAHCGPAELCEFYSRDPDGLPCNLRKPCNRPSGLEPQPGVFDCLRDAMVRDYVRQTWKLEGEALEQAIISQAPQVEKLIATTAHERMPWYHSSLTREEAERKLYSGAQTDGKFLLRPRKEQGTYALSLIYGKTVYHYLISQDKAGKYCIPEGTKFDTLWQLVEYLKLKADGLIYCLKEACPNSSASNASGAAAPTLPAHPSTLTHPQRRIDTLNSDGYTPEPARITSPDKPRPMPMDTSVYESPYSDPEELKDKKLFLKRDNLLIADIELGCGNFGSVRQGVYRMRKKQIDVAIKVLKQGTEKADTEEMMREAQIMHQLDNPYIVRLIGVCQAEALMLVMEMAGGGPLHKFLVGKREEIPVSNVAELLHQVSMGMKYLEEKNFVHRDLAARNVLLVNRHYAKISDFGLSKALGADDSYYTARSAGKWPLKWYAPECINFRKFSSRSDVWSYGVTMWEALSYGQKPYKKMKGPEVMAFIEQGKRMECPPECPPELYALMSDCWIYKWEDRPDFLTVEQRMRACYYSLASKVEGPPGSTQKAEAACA

Tyrosine-protein kinase Fes/Fps (Homo sapiens), sequence (P07332 whole entry): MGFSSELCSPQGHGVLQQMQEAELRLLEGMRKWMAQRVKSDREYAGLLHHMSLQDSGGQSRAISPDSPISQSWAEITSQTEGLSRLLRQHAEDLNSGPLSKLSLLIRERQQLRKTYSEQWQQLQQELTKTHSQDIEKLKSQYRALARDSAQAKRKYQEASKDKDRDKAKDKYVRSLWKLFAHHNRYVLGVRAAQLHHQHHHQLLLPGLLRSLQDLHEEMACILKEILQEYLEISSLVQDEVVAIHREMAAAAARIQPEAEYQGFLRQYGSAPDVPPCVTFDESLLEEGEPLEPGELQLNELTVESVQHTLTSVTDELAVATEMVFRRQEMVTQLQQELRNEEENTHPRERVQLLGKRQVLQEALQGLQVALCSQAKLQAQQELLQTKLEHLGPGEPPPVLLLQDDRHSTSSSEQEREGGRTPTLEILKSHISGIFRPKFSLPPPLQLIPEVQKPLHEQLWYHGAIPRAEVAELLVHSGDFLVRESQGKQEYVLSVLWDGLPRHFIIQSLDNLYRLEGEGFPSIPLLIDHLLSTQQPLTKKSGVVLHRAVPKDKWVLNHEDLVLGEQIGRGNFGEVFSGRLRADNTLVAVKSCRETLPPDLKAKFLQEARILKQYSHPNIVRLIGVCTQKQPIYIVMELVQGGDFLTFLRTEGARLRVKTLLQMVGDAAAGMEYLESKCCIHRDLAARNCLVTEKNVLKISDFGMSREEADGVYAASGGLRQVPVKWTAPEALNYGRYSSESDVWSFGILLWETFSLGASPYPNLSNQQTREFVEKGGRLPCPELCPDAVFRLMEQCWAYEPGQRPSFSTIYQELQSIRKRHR
Serine/threonine-protein kinase PLK3 (Homo sapiens), sequence (Q9H4B4 whole entry, looked up): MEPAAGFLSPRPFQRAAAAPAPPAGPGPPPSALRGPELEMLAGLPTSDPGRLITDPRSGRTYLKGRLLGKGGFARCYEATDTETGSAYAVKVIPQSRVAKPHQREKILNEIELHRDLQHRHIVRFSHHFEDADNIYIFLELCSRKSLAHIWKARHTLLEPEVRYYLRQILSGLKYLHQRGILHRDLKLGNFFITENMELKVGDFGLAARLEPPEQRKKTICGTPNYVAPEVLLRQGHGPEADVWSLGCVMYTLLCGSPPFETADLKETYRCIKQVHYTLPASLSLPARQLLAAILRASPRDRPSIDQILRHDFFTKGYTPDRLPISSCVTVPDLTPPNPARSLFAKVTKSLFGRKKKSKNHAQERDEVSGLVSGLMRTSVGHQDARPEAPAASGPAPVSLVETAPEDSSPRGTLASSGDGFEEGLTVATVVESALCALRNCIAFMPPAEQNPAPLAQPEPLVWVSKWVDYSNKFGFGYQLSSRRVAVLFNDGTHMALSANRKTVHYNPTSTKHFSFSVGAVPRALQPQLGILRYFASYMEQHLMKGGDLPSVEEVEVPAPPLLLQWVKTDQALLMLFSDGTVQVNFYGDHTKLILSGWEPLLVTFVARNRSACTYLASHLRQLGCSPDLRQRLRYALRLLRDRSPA

COc1cc2nc(C)nc(N[C@H](C)c3cccc(-c4cn[nH]c4)c3)c2cc1OC
Activity [1]: 64%
Activity [2]: 45%
Activity [3]: 100%
Activity [4]: 88%
Activity [5]: 100%
Activity [6]: 82%

COc1cc2ncnc(N[C@H](C)c3cccc4ccccc34)c2cc1OC
Activity [1]: 76%
Activity [2]: 99%
Activity [3]: 96%
Activity [4]: 81%
Activity [5]: 79%
Activity [6]: 97%
